# Results published in ChEMBL document CHEMBL5352393, “Discovery of small-molecule modulators of the secretin receptor: Purmorphamine as novel anti-hypertensive agent” (Eur J Med Chem, 2022).
# Calls of active or inactive are those of the source. The calls are words filed in the database; no cut-off is given here.
# Experiments:
# Secretin receptor [1] = molecular target: T1, Secretin receptor (Homo sapiens, UniProt P47872); experiment: Positive allosteric modulation of SCTR (unknown origin) overexpressed in CHO cells assessed as potentiation of SCT-induced cAMP production by measuring maximal response at 100 uM incubated for 20 mins by Lance cAMP assay relative to control (reference value: 100 %); type: functional, cell-based; conditions: filed as positive allosteric modulator
# T1 sequence (P47872 whole entry): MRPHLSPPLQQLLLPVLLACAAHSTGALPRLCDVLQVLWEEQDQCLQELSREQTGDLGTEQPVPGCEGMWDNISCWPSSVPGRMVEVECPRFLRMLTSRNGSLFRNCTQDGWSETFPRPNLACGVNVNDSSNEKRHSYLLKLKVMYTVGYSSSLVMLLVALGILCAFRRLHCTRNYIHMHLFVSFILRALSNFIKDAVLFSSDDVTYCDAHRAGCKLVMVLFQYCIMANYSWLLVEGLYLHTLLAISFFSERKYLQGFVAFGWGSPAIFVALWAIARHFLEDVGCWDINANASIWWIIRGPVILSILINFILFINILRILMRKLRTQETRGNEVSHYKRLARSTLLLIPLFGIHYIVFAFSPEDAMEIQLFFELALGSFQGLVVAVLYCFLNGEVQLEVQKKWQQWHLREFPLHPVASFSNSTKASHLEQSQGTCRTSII
# Secretin receptor [2] = molecular target: T1, Secretin receptor; experiment: Negative allosteric modulation of SCTR (unknown origin) overexpressed in CHO cells assessed as decrease in SCT-induced cAMP production by measuring maximal response at 100 uM incubated for 20 mins by Lance cAMP assay relative to control (reference value: 100 %); type: functional, cell-based; conditions: filed as negative allosteric modulator
# Rattus norvegicus [3] = experiment: Antihypertensive activity in anesthetized spontaneous hypertensive rat model assessed as reduction in mean arterial blood pressure at 1 mg/kg, po measured within 20 hrs in presence of 0.3 mg/kg Azilsartan relative to control; type: functional; design: scale not given: the % may be the effect or the level left
# Secretin receptor [4] = molecular target: T1, Secretin receptor; experiment: Synergistic agonist activity at SCTR (unknown origin) expressed in CHO cells assessed as fold increase in cAMP production at 100 uM incubated for 20 mins in presence of SCT by Lance cAMP assay (reference value: 4.13); type: functional, cell-based; conditions: filed as agonist
# Rattus norvegicus [5] = experiment: Antihypertensive activity in anesthetized spontaneous hypertensive rat model assessed as reduction in mean arterial blood pressure at 30 mg/kg, po measured after 15 hrs relative to control; type: functional; design: scale not given: the % may be the effect or the level left
# Rattus norvegicus [6] = experiment: Antihypertensive activity in anesthetized spontaneous hypertensive rat model assessed as reduction in mean arterial blood pressure at 50 mg/kg, po measured after 15 hrs relative to control; type: functional; design: scale not given: the % may be the effect or the level left
# [7] = Half life in C57 mouse blood at 1000 mg/kg, po administered via gavage measured upto 24 hrs by LC-MS/MS analysis; type: ADME, organism-based
# Secretin receptor [8] = molecular target: T1, Secretin receptor; experiment: Agonist activity at SCTR (unknown origin) expressed in CHO cells assessed as increase in cAMP production incubated for 20 mins Lance cAMP assay; type: functional, cell-based
# [9] = Drug concentration in C57 mouse blood at 1000 mg/kg, po administered via gavage measured at 6 hrs by LC-MS/MS analysis; type: ADME, organism-based; conditions: read-out: Ct
# Secretin receptor [10] = molecular target: T1, Secretin receptor; experiment: Positive allosteric modulation of SCTR (unknown origin) expressed in CHO cells assessed as potentiation of SCT-induced cAMP production by measuring maximal response at 1 uM incubated for 20 mins in presence of 1 uM SCT by Lance cAMP assay (reference value: 100 +/- 0.03%); type: functional, cell-based; conditions: filed as positive allosteric modulator
# Secretin receptor [11] = molecular target: T1, Secretin receptor; experiment: Positive allosteric modulation of SCTR (unknown origin) expressed in CHO cells assessed as potentiation of SCT-induced cAMP production by measuring maximal response at 10 uM incubated for 20 mins in presence of 1 uM SCT by Lance cAMP assay (reference value: 100 +/- 0.03%); type: functional, cell-based; conditions: filed as positive allosteric modulator
# [12] = Tmax in C57 mouse blood at 1000 mg/kg, po administered via gavage measured upto 24 hrs by LC-MS/MS analysis; type: ADME, organism-based
# [13] = Drug concentration in C57 mouse blood at 1000 mg/kg, po administered via gavage measured at 24 hrs by LC-MS/MS analysis; type: ADME, organism-based; conditions: read-out: Ct
# Rattus norvegicus [14] = experiment: Antihypertensive activity in anesthetized spontaneous hypertensive rat model assessed as reduction in blood pressure at 0.26 microg/g, iv administered through tail vein and measured after 20 to 50 hrs by DSI telemetric transmitter based analysis; type: functional, organism-based; conditions: dose 0.26 µg/g, time 20-50 hrs
# Rattus norvegicus [15] = experiment: Antihypertensive activity in anesthetized spontaneous hypertensive rat model assessed as reduction in mean arterial blood pressure at 0.26 microg/g, iv administered through tail vein and measured after 20 to 50 hrs by DSI telemetric transmitter based analysis relative to control; type: functional; design: scale not given: the % may be the effect or the level left; conditions: dose 0.26 µg/g, time 20-50 hrs
# [16] = Drug concentration in C57 mouse blood at 1000 mg/kg, po administered via gavage measured after 12 hrs by LC-MS/MS analysis; type: ADME, organism-based; conditions: read-out: Ct
# Secretin receptor [17] = molecular target: T1, Secretin receptor; experiment: Agonist activity at SCTR (unknown origin) expressed in CHO cells assessed as increase in cAMP production by measuring maximal response incubated for 20 mins Lance cAMP assay relative to control; type: functional, cell-based
# [18] = Cmax in C57 mouse blood at 1000 mg/kg, po administered via gavage measured upto 24 hrs by LC-MS/MS analysis; type: ADME, organism-based; design: time < 24 hrs, dose 1000 mg/kg, route po
# Secretin receptor [19] = molecular target: T1, Secretin receptor; experiment: Positive allosteric modulation of SCTR (unknown origin) expressed in CHO cells assessed as potentiation of SCT-induced cAMP production by measuring maximal response at 100 uM incubated for 20 mins in presence of 1 uM SCT by Lance cAMP assay (reference value: 100 +/- 0.03%); type: functional, cell-based; conditions: filed as positive allosteric modulator
smiles,measurement,setting,value
O=C(O)c1cn(C2CCCCC2)c2nc(Oc3cccc4ccccc34)nc(Nc3ccc(N4CCOCC4)cc3)c12,Emax,Secretin receptor [1],157%
OC1CCN(c2ccc(Nc3nc(Oc4cccc5ccccc45)nc4c3ncn4C3CCCCC3)cc2)CC1,Emax,Secretin receptor [1],166%
O[C@@H]1CCC[C@H](n2cnc3c(Nc4ccc(N5CCOCC5)cc4)nc(Oc4cccc5ccccc45)nc32)C1,Emax,Secretin receptor [1],165%
Oc1cc(N2CCOCC2)ccc1Nc1nc(Oc2cccc3ccccc23)nc2c1ncn2C1CCCCC1,Emax,Secretin receptor [1],181%
Oc1ccc2c(Oc3nc(Nc4ccc(N5CCOCC5)cc4)c4ncn(C5CCCCC5)c4n3)cccc2c1,Emax,Secretin receptor [1],146%
c1ccc(-c2ccc(Nc3nc(Oc4cccc5ccccc45)nc4c3ncn4C3CCCCC3)cc2)cc1,Emax,Secretin receptor [2],58.8%
c1ccc(Oc2ccc(Nc3nc(Oc4cccc5ccccc45)nc4c3ncn4C3CCCCC3)cc2)cc1,Emax,Secretin receptor [1],98.8%
c1ccc2c(Oc3nc(Nc4ccc(-c5cccc6ccccc56)cc4)c4ncn(C5CCCCC5)c4n3)cccc2c1,Emax,Secretin receptor [2],54.1%
NS(=O)(=O)c1cc(C2(O)NC(=O)c3ccccc32)ccc1Cl (stereo unspecified) [CHLORTHALIDONE],Activity,Rattus norvegicus [3],22.72%
c1ccc2c(Oc3nc(Nc4ccc(N5CCOCC5)cc4)c4ncn(C5CCCCC5)c4n3)cccc2c1 [PURMORPHAMINE],fold change (FC),Secretin receptor [4],6.1
same,Activity,Rattus norvegicus [5],10.33%
same,Activity,Rattus norvegicus [6],7.63%
same,half-life,[7],7.7 h
same,EC50,Secretin receptor [8],191 µM
same,concentration at 6 h,[9],> 300 ng/mL
same,Emax,Secretin receptor [10],117%
same,Emax,Secretin receptor [11],103%
same,Tmax,[12],0.5 h
same,concentration at 24 h,[13],61 ng/mL
same,Activity,Rattus norvegicus [14],Active
same,Activity,Rattus norvegicus [15],~14%
same,Emax,Secretin receptor [1],204%
same,concentration at 12 h,[16],260 ng/mL
same,Emax,Secretin receptor [17],10.3%
same,Cmax,[18],647 ng/mL
same,Emax,Secretin receptor [19],238%
